In patent US20230355599A1, “BIOMARKERS FOR CBL, AND COMPOSITIONS AND METHODS FOR THEIR USE” (NURIX THERAPEUTICS, INC., priority 2022, published 2023):

Legend:
Type in all cases: cell-based
pY783-PLCg1 = experiment: Phosphoprotein screen in human whole blood with CBL inhibitor at 10 uM: PLCγ1; conditions: 1 hr 37° C., human whole blood 8 donors, anti-CD3/CD28 + crosslinker 60 minutes
Method: (§1) To identify proximal biomarkers of CBL-B inhibition in immune cells, a panel of phosphorylated proteins were screened in human whole blood incubated with CBL-B inhibitor and concomitant anti-CD3 and anti-CD28 antibodies. The effect of CBL-B inhibition was assessed across multiple cellular signaling networks.
(§2) Human heparinized whole blood from 8 donors was received after an overnight shipment at 4° C. The blood was plated, treated with CBL inhibitor at 10 uM and incubated at 37° C. for 60 minutes. After incubation, the cells were stimulated with anti-CD3/CD28 followed by a cross-linking antibody (30 μg of goat anti-mouse IgG (H+L) antibody (Invitrogen)). After 60 minutes, the cells were fixed, and stained using surface markers for T cells (CD3^+CD4^+& CD3^+CD8^+) and analyzed by flow cytometry for target phosphorylation of the following markers: pY180/pY511-ITK, pY397-HS1, pY759-PLCg2, pY783-PLCg1, pY525/pY526/pY348-SYK & pY319-Zap70.
(§3) Fold change of each biomarker was calculated with the following example equation: […]
(§4) Whole blood from eight human donors was collected in sodium heparin anti-coagulant treated with 10 μM of Compound 23 for 1 hr at 37° C. […] Fold change of % phosphorylation normalized to DMSO was quantitated in T cells (CD8^+) using flow cytometry is provided in FIGS. 6A-6B.

phosphorylated HS1 = experiment: Phosphorylated HS1 in cynomolgus macaque CD8+ T cells from whole blood in vitro (flow cytometry); conditions: Macaca fascicularis, T-cell, whole blood from six cynomolgus macaques, 2 hrs 37° C., 2 μg/mL anti-CD3 & anti-CD28 + crosslinker 60 minutes, read-out: Average mean EC50±standard deviation, phosphorylated HS1
Method: To assess these candidate clinical proximal biomarkers of Cbl-b inhibition on T cells, pharmacodynamic analysis was performed. Whole blood was obtained from cynomolgus macaque donors, then incubated with increasing concentrations of Compound 23. The response to Cbl-b inhibition on phosphorylated HS1, ZAP70 and PLCγ2 was measured in CD8^+ T cells using flow cytometry. This technique is highly quantitative and can measure multiple phosphorylation markers in different cell populations within the same sample.
DMSO (Dimethyl sulfoxide) was used to reconstitute Compound 23. Final concentration of DMSO was 0.05% in media for in vitro assays. […]
Stained cells were run on an Attune NxT Acoustic Focusing Flow Cytometer (Thermo Fisher, cat. No. A29004), and data was analyzed using FlowJo (v10.6.1) and GraphPad Prism (v8.00) software. Single lymphocytes were gated for CD8^+ cells (CD45^+/CD8^+) cells, and population frequencies were calculated for each population. The data is quantified by the percent positive. […] As protein becomes phosphorylated the fluorescence increases resulting in a larger fraction of the cells entering that gate. Each population was evaluated for % positive pY759-PLCγ2, pY397-HS1 levels, pY319/Syk (Y352)-ZAP70 levels.

pY525/pY526/pY348-SYK = experiment: Phosphoprotein screen in human whole blood with CBL inhibitor at 10 uM: SYK; conditions: 1 hr 37° C., human whole blood 8 donors, anti-CD3/CD28 + crosslinker 60 minutes
Method: as §1, §2, §3, §4

C[C@H]1CCCN(Cc2cc3c(c(C(F)(F)F)c2)CN(c2cccc([C@]4(c5nncn5C)C[C@@H](C)C4)c2)C3=O)C1 [Compound 23]
increased phosphorylation of PLCγ1 compared to DMSO control (pY783-PLCg1): 2-3 fold | EC50 (phosphorylated HS1): 230 ± 150 nM | increased phosphorylation of SYK compared to DMSO control (pY525/pY526/pY348-SYK): 2-3 fold
